Where a name gives a salt, the structure may show the parent alone. Read-outs that look alike come from different tables or passages of the source.
Tests used:
Type in all cases: cell-based
[1] = test system: endosomal acidification in Vero cells; experiment: cells; conditions: for inhibition at 40 µM: Chlorocebus sabaeus, read-out: Percent Inhibition (%) of endosomal acidification
Procedure: Inhibition of endosomal acidification was measured using LysoTracker Red DND-99 (ThermoFisher). […] Data were plotted using Prism 9 (GraphPad).

[2] = test system: SARS-CoV-2 PsV (wild-type S protein); experiment: microbe, parasite or virus in culture; conditions: Severe acute respiratory syndrome coronavirus 2, HeLa-ACE2, read-out: IC50, inhibition of PsV entry, HeLa-ACE2 (-TMPRSS2), wild-type S PsV
[3] = Cell viability (CellTiter-Glo), HeLa-ACE2 cells; conditions: human, read-out: half-cytotoxic concentration (CC50)
Procedure: In order to confirm that the reduced luminescence was not related to cell toxicity, HeLa-ACE2 and Vero-TMPRSS2 cell viability upon incubation with serial dilutions of the sample compounds were tested in parallel to the neutralization assay. […] Cell viability was monitored by adding 50 μL of CellTiter-Glo reagent (Promega) to 200 μL of media containing cells. After a 10-minute incubation, 100 μL volume was transferred to a 96-well white plate (Sigma-Aldrich) to measure luminescence using a Synergy Neo2 Multi-Mode Assay Microplate Reader (Biotek Instruments). As an additional measure of cell toxicity Vero cell, lacking TMPRSS2, viability was measured using PrestoBlue (ThermoFisher). 10,000 cells/well of pre-seeded Vero cells were cocultured with the same serial dilutions of the sample compounds at 37°C for 48 h. At 48 h, 10 μL of PrestoBlue (ThermoFisher) was added to 100 μL of media containing cells. After a 2 h incubation, fluorescence was measured using a Spectromax m5e (Molecular Devices) at an excitation of 555 nm and emission of 585 nm. Data were plotted and half-cytotoxic concentration (CC50) values were calculated using Prims 9 (GraphPad).

[4] = Vero cells, 40 μM, singlet (n=1)

Compound | inhibition at 40 µM [1, 4] | also measured
CN1CCc2c(c3ccccc3n2Cc2ccccc2)C1.CN1CCc2c(c3ccccc3n2Cc2ccccc2)C1.O=S(=O)(O)c1cccc2c(S(=O)(=O)O)cccc12 [MEBHYDROLIN NAPHTHALENESULFONATE] | – | Percent Inhibition (%) of endosomal acidification [1, 4]: 52%
OC(c1cc(C(F)(F)F)nc2c(C(F)(F)F)cccc12)C1CCCCN1 (centres unmarked) [MEFLOQUINE] | 64% | –
CN1C[C@H](CNC(=O)OCc2ccccc2)C[C@@H]2c3cccc4c3c(cn4C)C[C@H]21 [METERGOLINE] | 53% | –
COC(=O)CC[C@@H](C)[C@H]1CC[C@H]2[C@@H]3CC[C@@H]4C[C@H](O)CC[C@]4(C)[C@H]3C[C@H](O)[C@]12C [METHYL DEOXYCHOLATE] | 63% | –
Cc1cc(C(C)(C)CC(C)(C)C)ccc1OCCOCC[N+](C)(C)Cc1ccccc1.[Cl-] [METHYLBENZETHONIUM CHLORIDE] | – | Percent Inhibition (%) of endosomal acidification [1, 4]: 85%
CN(C)c1ccc2nc3ccc(=[N+](C)C)cc-3sc2c1 [METHYLENE BLUE] | 85% | –
Clc1ccc(COC(Cn2ccnc2)c2ccc(Cl)cc2Cl)c(Cl)c1 (centres unmarked) [MICONAZOLE NITRATE] | 81% | –
O=C1c2c(O)ccc(O)c2C(=O)c2c(NCCNCCO)ccc(NCCNCCO)c21 [MITOXANTRONE HYDROCHLORIDE] | 80% | –
OC(CNCC(O)C1CCc2cc(F)ccc2O1)C1CCc2cc(F)ccc2O1 (centres unmarked) [NEBIVOLOL HYDROCHLORIDE] | 52% | –
CCCCCCCCCc1ccc(OCCOCCOCCOCCOCCOCCOCCOCCOCCO)cc1 [NONOXYNOL-9] | 91% | –
Fc1ccc([C@@H]2CCNC[C@H]2COc2ccc3c(c2)OCO3)cc1 [PAROXETINE HYDROCHLORIDE] | 65% | –
OC1(c2ccc(Cl)c(C(F)(F)F)c2)CCN(CCCC(c2ccc(F)cc2)c2ccc(F)cc2)CC1 [PENFLURIDOL] | 61% | –
C1CCC(C(CC2CCCCN2)C2CCCCC2)CC1 (centres unmarked) [PERHEXILINE MALEATE] | 92% | –
OCCN1CCN(CCCN2c3ccccc3Sc3ccc(Cl)cc32)CC1 [PERPHENAZINE] | 93% | –
O=c1[nH]c2ccccc2n1C1CCN(CCCC(c2ccc(F)cc2)c2ccc(F)cc2)CC1 [PIMOZIDE] | 54% | –
CC(=O)c1ccc2c(c1)N(CCCN1CCC(CCO)CC1)c1ccccc1S2 [PIPERACETAZINE] | 78% | –
CN1CCC(=C2c3ccccc3CCc3sccc32)CC1.O=C(O)CC(O)C(=O)O [PIZOTYLINE MALATE] | – | Percent Inhibition (%) of endosomal acidification [1, 4]: 50%
COc1cc2nc(N3CCN(C(=O)c4ccco4)CC3)nc(N)c2cc1OC [PRAZOSIN HYDROCHLORIDE] | 76% | –
COc1cc(NC(C)CCCN)c2ncccc2c1 (centres unmarked) [PRIMAQUINE PHOSPHATE] | 68% | –
CCCC(C(=O)OCCN(CC)CC)(c1ccccc1)c1ccccc1 [PROADIFEN HYDROCHLORIDE] | 59% | –
CN1CCN(CCCN2c3ccccc3Sc3ccc(Cl)cc32)CC1 [PROCHLORPERAZINE EDISYLATE] | 73% | –

Compound | inhibition at 40 µM [1, 4] | also measured
Nc1ccc2cc3ccc(N)cc3nc2c1 [PROFLAVINE HEMISULFATE] | 54% | –
CN(C)CCCN1c2ccccc2Sc2ccccc21 [PROMAZINE HYDROCHLORIDE] | 75% | –
CC(CN1c2ccccc2Sc2ccccc21)N(C)C (centres unmarked) [PROMETHAZINE HYDROCHLORIDE] | 56% | –
COc1ccc2nc3cc(Cl)ccc3c(Nc3cc(CN4CCCC4)c(O)c(CN4CCCC4)c3)c2n1.O=P(O)(O)O.O=P(O)(O)O.O=P(O)(O)O.O=P(O)(O)O [PYRONARIDINE TETRAPHOSPHATE] | – | Percent Inhibition (%) of endosomal acidification [1, 4]: 70%
CCN(CC)CCCC(C)Nc1c2ccc(Cl)cc2nc2ccc(OC)cc12 (centres unmarked) [QUINACRINE HYDROCHLORIDE] | 63% | –
O=C(Nc1ccc(Oc2ccc(Cl)cc2)c(Cl)c1)c1cc(I)cc(I)c1O [RAFOXANIDE] | 68% | –
O=C(c1ccc(OCCN2CCCCC2)cc1)c1c(-c2ccc(O)cc2)sc2cc(O)ccc12 [RALOXIFENE HYDROCHLORIDE] | 56% | –
Cl.N=C(N/N=C/c1ccc(Cl)cc1)N/N=C/c1ccc(Cl)cc1 [ROBENIDINE HYDROCHLORIDE] | – | Percent Inhibition (%) of endosomal acidification [1, 4]: 76%
CCC(C)(C)C(=O)O[C@H]1C[C@@H](C)C=C2C=C[C@H](C)[C@H](CC[C@@H]3C[C@@H](O)CC(=O)O3)[C@H]21 [SIMVASTATIN] | 84% | –
[H]/N=C(/N)N[C@H]1[C@H](O)[C@@H](O)[C@H](O[C@@H]2O[C@@H](C)[C@](O)(C=O)[C@H]2O[C@@H]2O[C@@H](CO)[C@H](O)[C@@H](O)[C@@H]2NC)[C@@H](N/C(N)=N\[H])[C@@H]1O [STREPTOMYCIN SULFATE] | 101% | –
CCCCCCCCNC(C)C(O)c1ccc(SC(C)C)cc1 (centres unmarked) [SULOCTIDIL] | 94% | –
CC/C(=C(\c1ccccc1)c1ccc(OCCN(C)C)cc1)c1ccccc1 [TAMOXIFEN CITRATE] | 82% | –
CC(C)N1CCN(c2ccc(OCC3COC(Cn4cncn4)(c4ccc(Cl)cc4Cl)O3)cc2)CC1 (centres unmarked) [TERCONAZOLE] | 64% | –
CCC(=O)O[C@H]1CC[C@H]2[C@@H]3CCC4=CC(=O)CC[C@]4(C)[C@H]3CC[C@]12C [TESTOSTERONE PROPIONATE] | 64% | –
COc1ccc2cc1Oc1ccc(cc1)C[C@H]1c3cc(c(OC)cc3CCN1C)Oc1c(OC)c(OC)cc3c1[C@H](C2)N(C)CC3 [TETRANDRINE] | 50% | –
C[CH2][Hg][S]c1ccccc1C(=O)[O-].[Na+] [THIMEROSAL] | – | Percent Inhibition (%) of endosomal acidification ([1]; 40 µM): 81%
CSc1ccc2c(c1)N(CCC1CCCCN1C)c1ccccc1S2 (centres unmarked) [THIORIDAZINE HYDROCHLORIDE] | – | inhibition at 40 µM ([1]; Vero): 92%
CN1CCN(CC/C=C2/c3ccccc3Sc3ccc(S(=O)(=O)N(C)C)cc32)CC1 [THIOTHIXENE] | 80% | –
CCN(CC)CCOc1ccc2c(c1)C(=O)c1cc(OCCN(CC)CC)ccc1-2 [TILORONE] | 59% | –
Clc1ccc(C(Cn2ccnc2)OCc2ccsc2Cl)c(Cl)c1 (centres unmarked) [TIOCONAZOLE] | – | inhibition at 40 µM ([1]; Vero): 94%
Cc1cc2nc3ccc(N(C)C)cc3[s+]c2cc1N [TOLONIUM CHLORIDE] | 84% | –

Compound | inhibition at 40 µM [1, 4] | also measured
C[C@H]1CC[C@]2(NC1)O[C@H]1C[C@H]3[C@@H]4CC[C@H]5C[C@@H](O[C@@H]6O[C@H](CO)[C@H](O[C@@H]7O[C@H](CO)[C@@H](O)[C@H](O[C@@H]8OC[C@@H](O)[C@H](O)[C@H]8O)[C@H]7O[C@@H]7O[C@H](CO)[C@@H](O)[C@H](O)[C@H]7O)[C@H](O)[C@H]6O)CC[C@]5(C)[C@H]4CC[C@]3(C)[C@H]1[C@@H]2C [TOMATINE] | 72% | –
CN(C)CCOc1ccc(/C(=C(/CCCl)c2ccccc2)c2ccccc2)cc1 [TOREMIPHENE CITRATE] | – | Percent Inhibition (%) of endosomal acidification [1, 4]: 68%
COC(=O)C1(C)CCCC2(C)c3ccc(O)c(C(C)C)c3CCC12 (centres unmarked) [TOTAROL-19-CARBOXYLIC ACID, METHYL ESTER] | – | Percent Inhibition (%) of endosomal acidification [1, 4]: 66%
CC(C)c1c(O)ccc2c1CC[C@H]1C(C)(C)CCC[C@]21C [TOTAROL] | 74% | –
Oc1cc(Cl)ccc1Oc1ccc(Cl)cc1Cl [TRICLOSAN] | 96% | –
CN1CCN(CCCN2c3ccccc3Sc3ccc(C(F)(F)F)cc32)CC1 [TRIFLUOPERAZINE HYDROCHLORIDE] | 77% | –
CN(C)CCCN1c2ccccc2Sc2ccc(C(F)(F)F)cc21 [TRIFLUPROMAZINE HYDROCHLORIDE] | 86% | –
CC(CN(C)C)CN1c2ccccc2Sc2ccccc21.CC(CN(C)C)CN1c2ccccc2Sc2ccccc21.O=C(O)C(O)C(O)C(=O)O (centres unmarked) [TRIMEPRAZINE TARTRATE] | – | Percent Inhibition (%) of endosomal acidification [1, 4]: 78%
CC(CN(C)C)CN1c2ccccc2CCc2ccccc21 (centres unmarked) [TRIMIPRAMINE MALEATE] | 56% | –
Cc1ccc(Sc2ccccc2N2CCNCC2)c(C)c1 [VORTIOXETINE HYDROBROMIDE] | 63% | –
CCOC(=O)Nc1ccc(NCc2ccc(F)cc2)nc1N [[…]] | 50% | –
COc1c(O)cc2oc3cc(O)c(CC=C(C)C)c(O)c3c(=O)c2c1CC=C(C)C [alpha-MANGOSTIN] | – | Percent Inhibition (%) of endosomal acidification [1, 4]: 86%
CCN(CC)Cc1cc(Nc2ccnc3cc(Cl)ccc23)ccc1O [amodiaquine] | – | IC50 [2]: 2500 nM; CC50 [3]: 34700 nM
CCN(CC)CCCC(C)Nc1ccnc2cc(Cl)ccc12 (centres unmarked) [chloroquine] | – | IC50 [2]: 2600 nM; CC50 [3]: 25700 nM
CCN(CC)CCCC(C)Nc1c2ccc(Cl)cc2nc2ccc(OC)cc12 (centres unmarked) [quinacrine] | – | IC50 [2]: 900 nM; CC50 [3]: 1700 nM
ABAMECTIN (avermectin B1a shown) | – | Percent Inhibition (%) of endosomal acidification [1, 4]: 59%
BENZALKONIUM CHLORIDE | – | Percent Inhibition (%) of endosomal acidification [1, 4]: 88%
BITHIONATE SODIUM | – | Percent Inhibition (%) of endosomal acidification [1, 4]: 67%
CHLOROPHYLLIDE Cu COMPLEX Na SALT | – | Percent Inhibition (%) of endosomal acidification [1, 4]: 77%
MEPARTRICIN | – | Percent Inhibition (%) of endosomal acidification [1, 4]: 52%
